Among the data in PubChem BioAssay AID1259407 (Chemical Carcinogenesis Research Information System (CCRIS), 2018) are mutagenic call values, retold here.

Active and inactive are the calls of the source. The rule behind the calls is not given here.

The test system of this data set is CCRIS mutagenicity, Ames/micronucleus/aberration tests. The data set is described as follows: CCRIS mutagenicity studies.
The mark [1] stands for this setting: Test System: AMES SALMONELLA TYPHIMURIUM, Strain/Indicator: TA100, Metabolic Activation: NONE, Method: STANDARD PLATE.

For `CC(C)COC(=O)CCCCC(=O)OCC(C)C`, the mutagenic call runs as follows: (Test System: AMES SALMONELLA TYPHIMURIUM, Strain/Indicator: TA97, Metabolic Activation: NONE, Method: STANDARD PLATE) “inactive; negative”; (Test System: AMES SALMONELLA TYPHIMURIUM, Strain/Indicator: TA97, Metabolic Activation: S-9, Method: STANDARD PLATE) “inactive; negative”; (Test System: AMES SALMONELLA TYPHIMURIUM, Strain/Indicator: TA98, Metabolic Activation: NONE, Method: STANDARD PLATE) “inactive; negative”; (Test System: AMES SALMONELLA TYPHIMURIUM, Strain/Indicator: TA98, Metabolic Activation: S-9, Method: STANDARD PLATE) “inactive; negative”; under setting [1], “inactive; negative”; (Test System: AMES SALMONELLA TYPHIMURIUM, Strain/Indicator: TA100, Metabolic Activation: S-9, Method: STANDARD PLATE) “inactive; negative”. The mutagenic call was “inactive; negative” (Test System: AMES SALMONELLA TYPHIMURIUM, Strain/Indicator: TA102, Metabolic Activation: NONE, Method: STANDARD PLATE); “inactive; negative” (Test System: AMES SALMONELLA TYPHIMURIUM, Strain/Indicator: TA102, Metabolic Activation: S-9, Method: STANDARD PLATE); “inactive; negative” (Test System: E.COLI, Strain/Indicator: WP2 (PKM101), Metabolic Activation: NONE, Method: STANDARD PLATE); “inactive; negative” (Test System: E.COLI, Strain/Indicator: WP2 (PKM101), Metabolic Activation: S-9, Method: STANDARD PLATE).

For `CC(=O)O[C@H]1[C@H](OC(C)=O)COC(Nc2ccc([N+](=O)[O-])cc2)[C@@H]1OC(C)=O` (some centres not stated), the mutagenic call under setting [1] was “inactive; negative”.

`NNc1ccn([C@@H]2O[C@H](CO)[C@@H](O)[C@H]2O)c(=O)n1`: the mutagenic call (Test System: CHINESE HAMSTER V-79, Strain/Indicator: V-79/6-THIOGUANINE, Metabolic Activation: NONE, Method: REPLATING) was “active; positive”.

Turning to `CC(C)CCCC(C)CCCC(C)CCCCC(C)CCCC(C)CCCC(C)C` (configuration not stated), the mutagenic call runs as follows: (Test System: Ames Salmonella typhimurium, Strain/Indicator: TA98, Metabolic Activation: None, Method: Preincubation) “inactive; negative”; (Test System: Ames Salmonella typhimurium, Strain/Indicator: TA98, Metabolic Activation: Rat, Liver, S9, Phenobarbital and 5,6-benzoflavone, Method: Preincubation) “inactive; negative”; (Test System: Ames Salmonella typhimurium, Strain/Indicator: TA100, Metabolic Activation: None, Method: Preincubation) “inactive; negative”; (Test System: Ames Salmonella typhimurium, Strain/Indicator: TA100, Metabolic Activation: Rat, Liver, S9, Phenobarbital and 5,6-benzoflavone, Method: Preincubation) “inactive; negative”; (Test System: Ames Salmonella typhimurium, Strain/Indicator: TA1535, Metabolic Activation: None, Method: Preincubation) “inactive; negative”; (Test System: Ames Salmonella typhimurium, Strain/Indicator: TA1535, Metabolic Activation: Rat, Liver, S9, Phenobarbital and 5,6-benzoflavone, Method: Preincubation) “inactive; negative”. The mutagenic call (Test System: Ames Salmonella typhimurium, Strain/Indicator: TA1537, Metabolic Activation: None, Method: Preincubation) was “inactive; negative”; the mutagenic call (Test System: Ames Salmonella typhimurium, Strain/Indicator: TA1537, Metabolic Activation: Rat, Liver, S9, Phenobarbital and 5,6-benzoflavone, Method: Preincubation) is “inactive; negative”; the mutagenic call (Test System: E. coli, Strain/Indicator: WP2uvrA/pKM101, Metabolic Activation: None, Method: Preincubation) was “inactive; negative”; the mutagenic call (Test System: E. coli, Strain/Indicator: WP2uvrA/pKM101, Metabolic Activation: Rat, Liver, S9, Phenobarbital and 5,6-benzoflavone, Method: Preincubation) was “inactive; negative”.
